Common to all, as to type: in vivo, CD-1 mice
A short description of data set [1]: Pharmacokinetics in mice plasma following oral administration. Conditions: dose 10 mg/kg; for F: absolute bioavailability, mice; for AUC(0-t) / Cmax / Tmax / half-life: male, CD-1, mouse, mice plasma; for half-life: read-out: T½ (converted). On the procedure:
(§1) Pharmacokinetic studies of the compounds were carried out on CD-1 mice, males, aged about 8 weeks, weighing 16-29 g. The animals were given a single oral (PO) administration (intragastrically) at a dose of 10 mg/kg in a formulation in the form of a 0.2% solution of hydroxypropyl methylcellulose (HPMC) in a 5% aqueous solution of glucose and a single IV-bolus administration (intravenously) at a dose of 1.0 mg/kg for 1277 and at a dose of 2.0 mg/kg for substances CDK7_1187, CDK7_1225, CDK7_1229 and CDK7_1276 in a formulation comprising 0.2% DMSO in 5% aqueous solution of glucose.
(§2) For each substance, 21-30 animals were used for each dose of PO and IV administration. All mice were weighed and randomized before dosing.
(§3) 3-5 animals were used for each time point. Each animal was sampled at one time point. At least 12 h before the start of the experiment, the animals were deprived of food while maintaining free access to water.
(§4) Animals from the PO and IV groups were subjected to blood sampling before administering the substance and after 0.5, 2, 4, 8, 12 and 24 h.
(§5) Blood was collected by cardiac puncture using the closed method. Blood was collected in a volume of 0.2 ml into polypropylene tubes comprising 20 μl of 5% EDTA. Blood plasma was separated by centrifugation at 10000 rpm for 10 minutes at 4±2° C. and transferred into clean labeled tubes.
(§6) Test blood plasma samples of mice from the experimental groups were obtained in a volume of 50 μl. Afterwards, […] of a solution of internal standard (tolbutamide (Sigma, T0891)) prepared in acetonitrile, at a concentration of 50 ng/ml, pre-cooled in the refrigerator at 2-8° C., was added to the samples, stirred in a vortex mixer (G560E, Scientific Industries) for 10 seconds and incubated at 4° C. for 15 minutes for protein precipitation. Samples were then centrifuged (5417R centrifuge, Eppendorf) at 1500 g for 10 minutes while cooling to 4° C. 150 μl of the supernatant were transferred to a 96-well plate for HPLC-MS/MS analysis. Quantitative determination of test compounds in blood plasma was carried out by absolute calibration method. The calibration curve was generated by analyzing plasma samples with supplementations of known amounts of the standard of the compound being determined. The lower limit of the quantitative determination of test compounds in blood plasma was 1 ng/ml, the analytical range of the technique was 1 ng/ml to 2000 ng/ml. The technique was partially validated in terms of selectivity, accuracy, precision, linearity, matrix effects, stability.
(§7) The Qtrap 5500 mass spectrometer (AB Sciex) in combination with the Agilent 1290 Infinity II HPLC liquid chromatograph (Agilent) and a cooling multisampler (Agilent 1290 Infinity II Multisampler G7167B) was used as an HPLC-MS/MS system. Chromatographic analysis was performed on a C18 reversed-phase HPLC column (YMC-Triart C18, 50*2 mm, 1.9 μm, YMC CO. Ltd). The mobile phase used was used a mixture of deionized water and acetonitrile supplemented with 0.1% formic acid in gradient mode, flow rate: 0.5 ml/min, column T=40° C., autosampler T=8° C., analysis time: 2.8 min. Mass spectrometric detection was performed in multiple reaction monitoring (MRM) mode. Precursor ions, fragment ions and collision energies for each substance were selected experimentally. Two Q1/Q3 transitions were used to record MRM chromatograms of the analyte and internal standard; one of transitions was used for quantitative calculations, the other one was used to confirm that the […] corresponds to a given substance. Based on the results of HPLC-MS/MS analysis of calibration samples using the Analyst 1.6.3 software, the calibration dependence of areas of chromatographic analyte peaks normalized to the signal of the internal standard on the concentration of the analyte was built.
(§8) Pharmacokinetic analysis was performed by non-compartmental method using the Phoenix WinNonlin 6.3 software package. […]

A short description of data set [2]: Pharmacokinetics in mice plasma following intravenous administration. Conditions: male, CD-1, mouse; for half-life: read-out: T½ (converted); for Vd: read-out: Vss. How it is done:
as §1, §2, §3, §4, §5, §6, §7, §8

Data set [3] can be described thus: Blood-brain barrier permeability: PK in mice brain homogenate following oral administration. Conditions: male, CD-1, mouse, dose 10 mg/kg; for Kp: brain homogenate / plasma, mice, read-out: AUCbrain/AUCplasma; for AUC(0-t) / Cmax / Tmax / half-life: mice brain homogenate; for half-life: read-out: t½ (converted). On the procedure:
The ability of substances to penetrate the blood-brain barrier and enter the central nervous system (mouse brain) was evaluated by the ratio of their areas under pharmacokinetic curves in […] and blood plasma following oral administration, characterizing tissue bioavailability to the […], and expressed as the AUCbrain/AUCplasma coefficient.
Pharmacokinetic studies of the compounds were carried out on CD-1 mice, males, aged about 8 weeks, weighing 16-29 g. Animals were subjected a single oral (PO) administration (intragastrically) at a dose of 10 mg/kg in a formulation in the form of a 0.2% solution of hydroxypropyl methylcellulose (HPMC) in a 5% aqueous solution of glucose.
21 animals were used for each substance. All mice were weighed and randomized before dosing.
3 animals were used for each time point. Biomaterials were collected from each animal at one time point. At least 12 h before the start of the experiment, the animals were deprived of food while maintaining free access to water. Blood and brain samples were collected 0.5, 2, 4, 6, 8, 12 and 16 h after administration of the substance.
All manipulations were carried out analogously to Example 54.
Perfusion of mice brains was carried out with saline solution via the vascular system. To this end, the chest was opened, the right atrium was incised with microsurgical scissors, and saline cooled to 4° C. was administered using a 10-ml syringe into the left ventricle until the liver turned white. After washing, the skull was opened and the brain removed, it was weighed and transferred to labeled 5 ml tubes.
A 4-fold volume of water was added to the brain suspension and homogenized using a homogenizer (Omni Bead Ruptor 24) 2 times for 45 seconds. Analogously, the intact mice brain homogenate was prepared, which was then used to prepare calibration samples and QC samples. The calibration curve was generated by analyzing brain homogenate samples with supplementations of known amounts of the standard of the compound being determined.
Samples were precipitated with cooled acetonitrile at 1:4 ratio, containing the internal standard tolbutamide (Sigma, T0891) at a concentration of 50 ng/ml. Samples were stirred on a vortex mixer (G560E, Scientific Industries) for 10 seconds and kept at 4° C. for 15 minutes to precipitate proteins, then centrifuged (5417R centrifuge, Eppendorf) for 10 minutes at 1500 g. […] of supernatants were collected and transferred to corresponding wells of a 96-well plate for HPLC-MS/MS analysis. Quantitative determination of test compounds in brain homogenates was carried out analogously to the procedure described in Example 54. Lower limit of quantitative determination of test compounds in brain homogenate was 0.3 ng/ml.
Pharmacokinetic analysis of data was performed analogously to the procedure described in Example 54.
In addition to main PK parameters, the ratio of concentration in the brain and plasma at the studied time points (AUCbrain/AUCplasma) was calculated to assess bioavailability in the brain (permeability through the blood-brain barrier).

Like-named read-outs stand apart in the source and are kept apart here.

For the compound `CN1CCCc2c(-c3nc(N[C@H]4CCC(C)(C)NC4)ncc3C(F)(F)F)c[nH]c2C1=O` [CDK7_1187, 3-(2-{[(3S)-6,6-dimethylpiperidin-3-yl]amino}-5-(trifluoromethyl)py-rimidin-4-yl)-7-methyl-1H,4H,5H,6H,7H, 8H-pyrrolo[2,3-c]azepin-8-one], in data set [1], the F is 72.7%, the area under the curve AUC(0-t) was 1160 ng·h/mL, the Cmax stood at 309 ng/mL and the Tmax came out at 0.5 h. The half-life in data set [1] is 1.7 h. Moreover, in data set [2] (dose 2 mg/kg), the AUC(0-t) was found to be 314 ng·h/mL, the clearance is 103 mL/min/kg, the half-life was 1.7 h and the Vd was 10.1 L/kg.
For `O=C1c2[nH]cc(-c3nc(N[C@H]4CCC5(CC5)NC4)ncc3C(F)(F)F)c2CCCN1C1CC1` [CDK7_1276, 3-(2-{[(6S)-4-azaspiro[2.5]octan-6-yl]amino}-5-(trifluoromethyl)py-rimidin-4-yl)-7-cyclopropyl-1H,4H,5H,6H,7H, 8H-pyrrolo[2,3-c]azepin-8-one], in data set [1], the F is recorded as 116%, the AUC(0-t) stood at 7980 ng·h/mL, the highest concentration (Cmax) came out at 1510 ng/mL and the time of peak concentration (Tmax) came to 0.5 h. In data set [1], the half-life was 2 h. Moreover, in data set [2] (dose 2 mg/kg), the area under the curve AUC(0-t) was 1380 ng·h/mL, the clearance is 21.5 mL/min/kg, the half-life was 4.15 h and the Vd was 6.52 L/kg. Besides, in data set [3], the Kp was determined as 0.243, the AUC(0-t) was 1940 ng·h/mL, the maximum concentration (Cmax) was 335 ng/mL and the Tmax amounted to 0.5 h. The half-life in data set [3] was 1.99 h.
For `CC(C)N1CCCc2c(-c3nc(N[C@H]4CCC(C)(C)NC4)ncc3C(F)(F)F)c[nH]c2C1=O` [CDK7_1229, 3-(2-{[(3S)-6,6-dimethylpiperidin-3-yl]amino}-5-(trifluoromethyl)py-rimidin-4-yl)-7-(propan-2-yl)-1H,4H,5H,6H,7H, 8H-pyrrolo[2,3-c]azepin-8-one], in data set [1], the F stood at 102%, the AUC(0-t) is 5790 ng·h/mL, the maximum concentration (Cmax) was 1070 ng/mL and the Tmax stood at 0.5 h. In addition, the half-life in data set [1] was 2.5 h. Moreover, in data set [2] (dose 2 mg/kg), the AUC(0-t) came to 1140 ng·h/mL, the clearance is 29 mL/min/kg, the half-life is 2 h and the Vd was 4.17 L/kg. Moreover, in data set [3], the Kp was determined as 0.182, the AUC(0-t) was determined as 909 ng·h/mL, the peak level (Cmax) was 136 ng/mL and the Tmax is 0.5 h. For the same compound, the half-life in data set [3] is 2.25 h.
As for `CC(C)N1CCCc2c(-c3nc(N[C@H]4CCC5(CC5)NC4)ncc3C(F)(F)F)c[nH]c2C1=O` [CDK7_1277, 3-(2-{[(6S)-4-azaspiro[2.5]octan-6-yl]amino}-5-(trifluoromethyl)py-rimidin-4-yl)-7-(propan-2-yl)-1H,4H,5H,6H,7H, 8H-pyrrolo[2,3-c]azepin-8-one], in data set [1], the F stood at 85.8%, the area under the curve AUC(0-t) worked out at 3110 ng·h/mL, the Cmax was 893 ng/mL and the Tmax was 0.5 h. The half-life in data set [1] was 3.8 h. Moreover, in data set [2] (dose 1 mg/kg), the AUC(0-t) was found to be 363 ng·h/mL, the clearance is 45 mL/min/kg, the half-life was 2.1 h and the Vd turned out to be 6.89 L/kg. Moreover, in data set [3], the Kp is 0.302, the exposure AUC(0-t) turned out to be 1750 ng·h/mL, the Cmax amounted to 226 ng/mL and the Tmax is 2 h. In addition, the half-life in data set [3] is 2.76 h.
With `CC1(C)CC[C@H](Nc2ncc(C(F)(F)F)c(-c3c[nH]c4c3CCCN(C3CC3)C4=O)n2)CN1` [CDK7_1225, 7-cyclopropyl-3-(2-{[(3S)-6,6-dimethylpiperidin-3-yl]amino}-5-(trifluoromethyl)py-rimidin-4-yl)-1H,4H,5H,6H,7H, 8H-pyrrolo[2,3-c]azepin-8-one], in data set [1], the F is reported as 102%, the AUC(0-t) worked out at 3540 ng·h/mL, the highest concentration (Cmax) stood at 712 ng/mL and the Tmax amounted to 2 h. The half-life in data set [1] is 1.9 h. Further, in data set [2] (dose 2 mg/kg), the AUC(0-t) stood at 691 ng·h/mL, the clearance is 48 mL/min/kg, the half-life is 1.8 h and the Vd was 6.3 L/kg. In addition, in data set [3], the Kp stood at 0.165, the area under the curve AUC(0-t) was 855 ng·h/mL, the Cmax turned out to be 93.8 ng/mL and the Tmax was determined as 6 h. In addition, the half-life in data set [3] was 2.33 h.

The values are drawn from patent US20260137698A1, “CYCLIN-DEPENDENT KINASE 7 INHIBITORS” (JOINT STOCK COMPANY «BIOCAD», priority 2022, published 2026).
